For the first experiment, the system named is influenza virus. Description: microbe, parasite or virus in culture. The class given is cell-based. As to conditions: parent compounds (Reference examples); MDBK or MDCK cells, 3 days, WST-8; read-out: CPE EC50. On the technique in general: Formazan colour is commonly taken as a measure of viable cells.
For `C[C@@H](N1CN([C@@H]2c3ccccc3CSc3ccccc32)n2ccc(=O)c(O)c2C1=O)C(F)(F)F` [Reference example 414], the half-maximal effective concentration (EC50) (as a rule, the concentration needed to bring the measured effect to its halfway point) was 131 nM.

The experiment is the same for the next values; noted with them: unidentified influenza virus, 72 h, read-out: CPE EC50, parent compounds (Reference examples); MDBK or MDCK cells, 3 days, WST-8.
On to `C#Cc1cccc2c1[C@H](N1CN([C@H](C)C(F)(F)F)C(=O)c3c(O)c(=O)ccn31)c1ccccc1SC2` [compound 730], for which the half-maximal effective concentration (EC50) turned out to be 0.799 nM.

Consider `O=C(NCCN1CN(C(c2ccccc2)c2ccccc2)n2ccc(=O)c(O)c2C1=O)c1ccccc1` [Example 150], for which the EC50 worked out at 553 nM. In the case of `C[C@@H](N1CN([C@H]2c3ccccc3CSc3c(F)cccc32)n2ccc(=O)c(O)c2C1=O)C(F)(F)F` [Reference example 444], the EC50 turned out to be 3 nM. In the case of `CCc1cccc2c1[C@H](N1CN([C@H](C)C(F)(F)F)C(=O)c3c(O)c(=O)ccn31)c1ccccc1SC2` [compound 731], the EC50 was 2.08 nM. As for `C[C@@H](N1CN([C@@H]2c3ccccc3SCc3cccc(Cl)c32)n2cc(B(O)O)c(=O)c(O)c2C1=O)C(F)(F)F` [compound 707], the half-maximal effective concentration (EC50) is 3.05 nM. Same read-out and setting: then `COC[C@H](C)N1C(=O)c2c(O)c(=O)ccn2N(C2c3ccccc3CCc3ccccc32)C1CCN(C)C` (some centres unmarked) [Reference example 644], with 60 nM. In the case of `C[C@@H](N1CN(C2c3cccc(F)c3CCc3c(F)cccc32)n2ccc(=O)c(O)c2C1=O)C(F)(F)F` [Reference example 638], the EC50 came to 21 nM. On to `C[C@@H](N1CN([C@@H]2c3ccccc3SCc3cccc(C4CC4)c32)n2ccc(=O)c(O)c2C1=O)C(F)(F)F` [compound 691], for which the half-maximal effective concentration (EC50) is 4.05 nM. Regarding `CC(=O)c1cn2c(c(O)c1=O)C(=O)N([C@H](C)C(F)(F)F)CN2[C@H]1c2cc(F)c(F)cc2CSc2ccccc21` [compound 692], the concentration for a half-maximal effect (EC50) turned out to be 9.64 nM. For `COCCN1C[C@H](C(c2ccccc2)c2ccccc2)n2cc(Br)c(=O)c(O)c2C1=O` [Example 63], the concentration for a half-maximal effect (EC50) was determined as 2000 nM.

Regarding `C[C@@H](N1CN([C@H]2c3ccc(F)cc3CSc3ccccc32)n2ccc(=O)c(O)c2C1=O)C(F)(F)F` [Reference example 454], the EC50 is 4 nM. The same measure, in the same setting: then `C[C@@H](N1CN([C@@H]2c3ccccc3SCc3c2ccc(F)c3F)n2ccc(=O)c(O)c2C1=O)C(F)(F)F` [compound 711], with 4.28 nM; and `Cc1nnc(CN2CN(C3c4ccccc4CCc4ccccc43)n3ccc(=O)c(O)c3C2=O)o1` [Reference example 256], with 400 nM; and `CN1C(=O)c2c(O)c(=O)c(C(=O)O)cn2C[C@H]1C(c1ccccc1)c1ccccc1` [Example 43], with 1410 nM. On the same count and under the same terms, then `COCCN1CN(C(c2ccccc2)c2ccccc2)n2cc(C(=O)O)c(=O)c(O)c2C1=O` [Example 94], with 1470 nM. Turning to `COCC(COC)N1CN(C2c3ccccc3CCc3ccccc32)n2ccc(=O)c(O)c2C1=O` [Reference example 272], the EC50 came to 30 nM.

Take `O=C1c2c(O)c(=O)ccn2N(C2c3ccccc3CSc3ccccc32)CN1C1CCC(F)(F)CC1` (centres unmarked) [Reference example 313]: the EC50 stood at 50 nM. As for `CC(C)N1CN(C2c3ccccc3COc3c(F)cccc32)n2ccc(=O)c(O)c2C1=O` (centres unmarked) [Reference example 403], the EC50 stood at 70 nM.

In the case of `C[C@@H](N1CN([C@@H]2c3ccccc3SCc3c(Br)cccc32)n2ccc(=O)c(O)c2C1=O)C(F)(F)F` [Reference example 463], the half-maximal effective concentration (EC50) is 5 nM. As to `CC(C)N1CN(C2c3ccccc3CSc3cc(F)ccc32)n2ccc(=O)c(O)c2C1=O` (centres unmarked) [Reference example 352], the concentration for a half-maximal effect (EC50) worked out at 20 nM. Regarding `COCCN1C[C@H](C(c2ccccc2)c2ccccc2)n2cc(OC)c(=O)c(O)c2C1=O` [Example 62], the EC50 amounted to 1680 nM. Take `CC(=O)N(C)CC1N(C(C)C)C(=O)c2c(O)c(=O)ccn2N1C1c2ccccc2CCc2ccccc21` (centres unmarked) [Reference example 525]: the EC50 amounted to 90 nM. `C[C@H](N1CN([C@H]2c3ccc(F)cc3CSc3ccccc32)n2ccc(=O)c(O)c2C1=O)C(F)(F)F` [Reference example 460]: the EC50 came to 9 nM. Regarding `CC(=O)OCCN1CN(C2c3ccccc3CSc3c(Cl)cccc32)n2ccc(=O)c(O)c2C1=O` (centres unmarked) [Reference example 359], the EC50 stood at 80 nM.

Take `C[C@@H](N1CN([C@H]2c3ccccc3CSc3c(C#N)cccc32)n2ccc(=O)c(O)c2C1=O)C(F)(F)F` [Reference example 618]: the EC50 was found to be 18 nM. Regarding `CN1CN(C2c3ccccc3CSc3cc(Cl)ccc32)n2ccc(=O)c(O)c2C1=O` (centres unmarked) [Reference example 348], the EC50 is 80 nM. Still for that read-out and setting: then `C[C@@H](N1CN([C@H]2c3ccccc3CSc3ccc(F)cc32)n2ccc(=O)c(O)c2C1=O)C(F)(F)F` [Reference example 448], with 8 nM.

For the compound `CCN(CC)CCC1N(C(C)C)C(=O)c2c(O)c(=O)ccn2N1C1c2ccccc2CCc2ccccc21` (centres unmarked) [Reference example 538], the EC50 is 30 nM. For `C[C@@H](N1CN([C@@H]2c3ccccc3SCc3cccc(F)c32)n2ccc(=O)c(O)c2C1=O)C(F)(F)F` [Reference example 456], the half-maximal effective concentration (EC50) turned out to be 4 nM. For the compound `C[C@@H](N1CN([C@H]2c3cccc(F)c3CSc3c(F)cccc32)n2ccc(=O)c(O)c2C1=O)C(F)(F)F` [Reference example 469], the EC50 stood at 4 nM. On the same count and under the same terms, then `CC(C)N1CN(C2c3ccccc3CSc3c(Cl)cccc32)n2ccc(=O)c(O)c2C1=O` (centres unmarked) [Reference example 326], with 5 nM; and `C[C@@H](N1CN(C2c3ccccc3CSc3ccc(F)cc32)n2ccc(=O)c(O)c2C1=O)C(F)(F)F` (some centres unmarked) [Reference example 345], with 8 nM; and `CC(C)C1N(CCO)C(=O)c2c(O)c(=O)ccn2N1C1c2ccccc2CCc2ccccc21` (centres unmarked) [Reference example 553], with 30 nM. On to `Cc1cccc2c1CSc1c(Cl)cccc1[C@H]2N1CN([C@H](C)C(F)(F)F)C(=O)c2c(O)c(=O)ccn21` [Reference example 612], for which the concentration for a half-maximal effect (EC50) stood at 13 nM. With `C[C@@H](N1CN([C@H]2c3ccccc3CCc3c(Cl)cccc32)n2ccc(=O)c(O)c2C1=O)C(F)(F)F` [Reference example 639], the EC50 stood at 17 nM.

Regarding `C[C@@H](N1CN([C@H]2c3cc(F)ccc3CSc3ccccc32)n2ccc(=O)c(O)c2C1=O)C(F)(F)F` [Reference example 441], the EC50 amounted to 5 nM. Consider `COCCN1C[C@H](C(c2ccccc2)c2ccccc2)n2cc(CO)c(=O)c(O)c2C1=O` [Example 48], for which the EC50 turned out to be 10900 nM.

With `COCCN1CN(Cc2ccccc2-c2ccccc2)n2ccc(=O)c(O)c2C1=O` [Example 99], the EC50 came out at 2000 nM. As to `COCCN1CN(C2c3ccccc3CSc3c(F)cccc32)n2ccc(=O)c(O)c2C1=O` (centres unmarked) [Reference example 336], the half-maximal effective concentration (EC50) worked out at 70 nM. Turning to `C[C@@H](N1CN([C@H]2c3cccc(C(F)(F)F)c3CSc3c(F)cccc32)n2ccc(=O)c(O)c2C1=O)C(F)(F)F` [Reference example 660], the EC50 came to 11 nM.

For `COCCN1C[C@H](C(c2ccccc2)c2ccccc2)n2cc(N)c(=O)c(O)c2C1=O` [Example 56], the half-maximal effective concentration (EC50) came to 3860 nM.

With `C[C@@H](N1CN([C@H]2c3ccc(F)cc3CSc3c(F)cccc32)n2ccc(=O)c(O)c2C1=O)C(F)(F)F` [Reference example 470], the concentration giving a half-maximal response (EC50) is 3 nM.

For the compound `C[C@@H](N1CN([C@H]2c3cc(Cl)ccc3CSc3ccccc32)n2ccc(=O)c(O)c2C1=O)C(F)(F)F` [Reference example 443], the EC50 was found to be 4 nM.

As to `C[C@@H](N1CN([C@@H]2c3ccccc3SCc3c(Cl)cccc32)n2ccc(=O)c(O)c2C1=O)C(F)(F)F` [Reference example 417], the half-maximal effective concentration (EC50) is 3 nM. On the same count and under the same terms, then `C[C@H](CO)N1CN(C2c3ccccc3CSc3ccccc32)n2ccc(=O)c(O)c2C1=O` (some centres unmarked) [Reference example 373], with 50 nM; and `CN(CCN1CN(C(c2ccccc2)c2ccccc2)n2ccc(=O)c(O)c2C1=O)S(=O)(=O)c1ccccc1` [Example 138], with 100 nM. With `CCOC(=O)CCN1CN(C(c2ccccc2)c2ccccc2)n2ccc(=O)c(O)c2C1=O` [Example 128], the EC50 is 416 nM. Still for that read-out and setting: then `COCCN1CN(C2c3ccccc3COc3c(Cl)cccc32)n2ccc(=O)c(O)c2C1=O` (centres unmarked) [Reference example 396], with 60 nM; and `O=C1c2c(O)c(=O)ccn2N(C2c3ccccc3CSc3c(Cl)cccc32)CN1[C@@H]1C[C@@H]1F` (some centres unmarked) [Reference example 332], with 20 nM; and `O=C(O)c1cn2c(c(O)c1=O)C(=O)N1CCCO[C@H]1[C@@H]2C(c1ccccc1)c1ccccc1` [Example 175], with 102 nM.

Consider `C[C@@H](N1CN(C(c2ccccc2)c2ccccc2Cl)n2ccc(=O)c(O)c2C1=O)C(F)(F)F` (some centres unmarked) [Reference example 243], for which the half-maximal effective concentration (EC50) stood at 20 nM. On to `O=C1c2c(O)c(=O)ccn2N([C@H]2c3ccccc3CSc3c(F)cccc32)CN1[C@H](CO)C(F)(F)F` [Reference example 611], for which the concentration for a half-maximal effect (EC50) came to 43 nM. On to `Cc1cccc2c1SCc1ccccc1C2N1CN(C(C)C)C(=O)c2c(O)c(=O)ccn21` (centres unmarked) [Reference example 356], for which the half-maximal effective concentration (EC50) was 20 nM.

Take `C[C@@H](N1CN(C2c3ccccc3CSc3cc(F)ccc32)n2ccc(=O)c(O)c2C1=O)C(F)(F)F` (some centres unmarked) [Reference example 344]: the EC50 worked out at 9 nM.

Take `O=C1c2c(O)c(=O)ccn2N(C2c3ccccc3CCc3ccccc32)CN1Cc1ncns1` [Reference example 271]: the 50% effective concentration (EC50) turned out to be 102 nM. In the case of `COCC(COC)N1CN(C2c3ccccc3CSc3c(F)cccc32)n2ccc(=O)c(O)c2C1=O` (centres unmarked) [Reference example 339], the concentration for a half-maximal effect (EC50) is 40 nM.

A further experiment concerns the target Cap-dependant Endonuclease (CEN) (RNP fraction, PB1-PB2-PA complex) (Influenza A virus (strain A/Wilson-Smith/1933 H1N1) (Influenza A virus (strain A/WS/1933 H1N1)), UniProt P15659).
Assay: not given
In kind it is biochemical, influenza A/WSN/33 virus.
Conditions: not given
As to `COC[C@H](C)N1C(=O)c2c(O)c(=O)ccn2N(C2c3ccccc3CCc3ccccc32)C1CCN(C)C` (some centres unmarked) [Reference example 644], 238 nM corresponded to half-maximal inhibition (IC50). Turning to `C[C@@H](N1CN([C@@H]2c3ccccc3SCc3c2ccc(F)c3F)n2ccc(=O)c(O)c2C1=O)C(F)(F)F` [compound 711], half-maximal inhibition (IC50) was put at 5.57 nM.

Staying with this experiment, now noted: parent compounds (Reference examples); room temperature, 60 minutes.
In the case of `C#Cc1cccc2c1[C@H](N1CN([C@H](C)C(F)(F)F)C(=O)c3c(O)c(=O)ccn31)c1ccccc1SC2` [compound 730], the IC50 (commonly the concentration that inhibits the measured activity by half) worked out at 2.52 nM. As for `CCc1cccc2c1[C@H](N1CN([C@H](C)C(F)(F)F)C(=O)c3c(O)c(=O)ccn31)c1ccccc1SC2` [compound 731], the IC50 was 5.76 nM. `C[C@@H](N1CN([C@@H]2c3ccccc3SCc3cccc(Cl)c32)n2cc(B(O)O)c(=O)c(O)c2C1=O)C(F)(F)F` [compound 707]: the concentration for half-maximal inhibition (IC50) worked out at 40.2 nM.

With `C[C@@H](N1CN(C2c3cccc(F)c3CCc3c(F)cccc32)n2ccc(=O)c(O)c2C1=O)C(F)(F)F` [Reference example 638], the concentration for half-maximal inhibition (IC50) worked out at 130 nM. On the same count and under the same terms, then `C[C@@H](N1CN([C@@H]2c3ccccc3SCc3cccc(C4CC4)c32)n2ccc(=O)c(O)c2C1=O)C(F)(F)F` [compound 691], with 3.67 nM; and `CC(=O)c1cn2c(c(O)c1=O)C(=O)N([C@H](C)C(F)(F)F)CN2[C@H]1c2cc(F)c(F)cc2CSc2ccccc21` [compound 692], with 36.9 nM.

For the origin of these results see patent publication US10202379B2, “Substituted polycyclic carbamoyl pyridone derivative prodrug” (priority 2010, dated 2019).
